“Also recorded” adds a separate entry of the source.
Experiments:
[1] = tested on: thoracic and abdominal aorta, renal and femoral arteries; assay: Insulin-induced relaxation of isolated arterial segments after oral tyrosine isomer supplementation of rats; assay type: in vivo, Sprague-Dawley rats
Experimental: The experiments were carried out with the permission of the Hungarian Local Animal Experiment Committee. Shortly after weaning male CFY rats (a strain of the Sprague-Dawley rat) were placed in individual cages and held on regular diet. After two hours of fasting animals (4-5 week-old, 80-140 g) were loaded with 1.76 mg/die para-, meta- or ortho-tyrosine (p-, m-, o-tyr; Sigma-Aldrich, Inc., St. Louis, Mo. 63178, USA) dissolved in saline or vehicle (saline only) by gavage (per os) six days of the week. After one month treatment, animals were either anaesthetized with ether and were decapitated with a guillotine or p-, m-, o-tyr and vehicle supplementation was discontinued (“washout” period) and they were sacrificed […] (FIG. 8.A). The descending thoracic and abdominal aorta, renal and femoral arteries were removed and cleaned from connective tissue (FIG. 19). Sections were immediately hydrolyzed for HPLC analysis or were used for vascular reactivity studies.
In further tyrosine isomer incorporation studies when effects of chronic oral p-Tyr and o-Tyr supplementation of rats on the o-Tyr level and insulin-induced relaxation of isolated arterial segments were studied, 18 Male Sprague-Dawley rats (5-6 week-old) were used. Rats were orally supplied with either 1.76 mg/die of p-Tyr or o-Tyr or vehicle during six days per week for four weeks. […] At the end of four-week treatment, HPLC and vasomotor studies were performed. In another group of rats, p-Tyr/o-Tyr supplementation was discontinued for four weeks (“washout” period), after which they were sacrificed for HPLC and vasomotor studies.
The modified method of Fésüs et al. (Fésüs2007) was used. The distal parts of the vessels were dissected into 2 mm long segments in ice-cold Krebs buffer and rings were mounted on two stainless steel wires (40 μm in diameter) in a Danish Multimyograph Model 610M (DMT-USA Inc., Atlanta, Ga., USA). Vessels were bathed in Krebs buffer (containing 119 mM NaCl, 4.7 mM KCl, 1.2 mM KH2PO4, 25 mM NaHCO3, 1.2 mM Mg2SO4, 11.1 mM glucose, 1.6 mM CaCl2*2H2O, pH 7.4) and gassed with 5% CO2 and 95% O2 at 37° C. The resting tension/internal circumference relationship for each vessel was determined and then the internal circumference was set to 0.9×L100, where L100 is the internal circumference the vessel would have had in vivo when relaxed under a transmural pressure of 100 mmHg After this normalization procedure vessels were allowed to stabilize for 30 min, and then isometric tension was continuously recorded. Rings were preconstricted with 100 nM epinephrine. After reaching a stabile contraction plateau, relaxant responses to increasing doses of insulin were assessed. The rate of relaxation was expressed as percentage of the contraction evoked by epinephrine (100%). Para-, meta-, ortho-tyrosine or vehicle were added to the vessel chamber 10 minutes before the addition of epinephrine and 30 minutes before the addition of insulin.

Akt (PKB) = assay: Erythropoietin-dependent phosphorylation of Akt (PKB) in 3T3-L1 adipocytes (Western blot); assay type: cell-based, mouse; conditions: 25 mM glucose; various concentrations of erythropoietin
3T3-L1 adipocytes = assay: Insulin-dependent uptake of deoxy-D-glucose 2-[1 2-3H(N)] into 3T3-L1 adipocytes; assay type: cell-based, mouse
Experimental: (§1) Primary cultures of mouse embryo fibroblasts (3T3-L1) were purchased from ATCC (Manassas, US). Early passages of 3T3-L1 fibroblasts were cultured in Dulbecco's modified Eagle medium ((DMEM, Invitrogen, CAT number: 41966-029; Sigma Aldrich CAT number: D6046) supplemented with 10% Fetal Bovine Serum (Gibco, CAT number: 16170-078), 100 U/ml penicillin and 0.1 mg/ml streptomycin (Gibco, CAT number: 15070-063) and 398 nM p-, m-, or o-Tyr. DMEM contained 25 or 5 mM glucose (depending on the experiment), L-glutamine, and pyruvate. Cells were grown in a humidified incubator at 37° C. and 5% CO2. Differentiation medium consisted of DMEM supplemented with 10% Fetal Bovine Serum (FBS, Gibco, Csertex, Budapest, Hungary, CAT number: 10106-169) (FBS), to which a cocktail was added containing […] isobuthylmethylxanthine (Sigma Aldrich, CAT number: I 5879), 0.17 nM insulin (Sigma Aldrich, CAT number: I 9278) and 250 nM dexamethasone (Sigma Aldrich, CAT number: 861871). From Day 4 onward, cells were maintained in DMEM/10% FBS containing […] insulin with a media change every other day until experimental treatments were initiated. For all treatments, cells were incubated overnight in serum-deprived medium after 90% of the cell population reached the adipocyte phenotype.
Cells were incubated in glucose free DMEM (Gibco, Csertex, Hungary) for 30 minutes, then treated with 2, 20, 200 or 400 nmol/l insulin for 100 minutes. Simultaneously 1 μCi/ml deoxy-D-glucose 2-[1 2-3H(N)] (3.7×104 Bq/ml) (Izotóp Intézet, Hungary) was added to the plates for 100 minutes Cells were scraped into the medium and centrifuged for 5 minutes at 1000 rpm. The sediment was dissolved in 70 μl of lysis-buffer and glucose uptake was assessed by scintillation counting measuring 30 μl of the sample with a Beckman LS 5000 TD counter in counts per minute (CPM) for five minutes each, using an average activity as the outcome. Samples were frozen overnight at −70° C. and protein concentration was measured using a Hitachi spectrophotometer. Results were normalized for protein content (Kaddai2009).

Akt (protein kinase B) = assay: Insulin-induced phosphorylation of Akt in 3T3-L1 adipocytes (Western blot); assay type: cell-based, mouse; conditions: cells grown on m-Tyr or o-Tyr; insulin 200 and 400 nmol/l
Experimental: as §1
Following the treatment cells were washed twice with Saline (4° C.) to remove any trace of the medium, then exposed to 80 μL lysis buffer/plate, containing 1.15% Triton X, 1M Trisbase, pH 7.4, 0.5 M EDTA, pH 8, 0.2 M EGTA, pH 7, 0.1 M dithiothreitol (DTT), 5 mg/ml phenylmethylsulfonyl fluoride (PMSF), 0.1 M Na3VO4, 5 mg/ml leupeptin, 5 mg/ml aprotinin, Phoshatase Inhibitor Coctail 1 and 2 (Sigma Aldrich, CAT number: P2850 and P5726). Adypocytes were scraped off mechanically and then frozen at −70° C.
The samples of EC lysates were sonicated (2 min) and centrifuged (10 min, 13,000 rpm, at 4° C.). Protein content of samples was determined by the Bradford method using bovine serum albumin as a standard Bio-Rad Benchmark Plus. Samples were solubilized in a buffer of 100 mM Tris-HCl (pH 6.8), 4.0% sodium dodecyl sulphate (SDS), 20% glycerol, 200 mM DTT, and 0.2% bromophenol blue. […]
Membranes were incubated overnight with the immunoglobulin G (IgG) monoclonal antibodies diluted to 1:1000 in TBS-T (0.1%), containing 5% bovine serum (BS). […] Blots were detected using enhanced chemiluminescence (ECL; Pierce Biotech, Bio-Rad, Budapest, Hungary). Computerized densitometry (integrated optical density) of the specific bands was analyzed with Scion Image for Windows Software. […]

## N[C@@H](Cc1cccc(O)c1)C(=O)O [m-Tyr, Meta-L-tyrosine]
[1]; 4th week, 1.76 mg/die per os, compared to control
  Insulin-induced relaxation, abdominal aorta, femoral (and renal) arteries: significantly diminished response to insulin
[1]; 4th week, 1.76 mg/die per os, compared to control/other groups
  Insulin-induced relaxation, thoracic aorta: did not observe any significant further decline of response to insulin
[1]; 8th week, 4 weeks washout, all segments
  Chronic effects on insulin-induced vasorelaxation after washout: completely abolished
Akt (PKB)
  EPO-dependent Akt phosphorylation: inhibited the normal increase in the Akt phosphorylation
3T3-L1 adipocytes; 72-72 mg/l m-Tyr or o-Tyr and p-Tyr, insulin 400 nM
  Insulin-induced glucose uptake at equimolar concentrations with p-Tyr: fully inhibit insulin-induced glucose uptake; also recorded: insulin had no effect on glucose uptake at all
3T3-L1 adipocytes; cells grown 11 days on medium with the tyrosine isomer + 5 mM glucose, insulin 2, 20, 200, 400 nM
  Insulin-dependent deoxy-D-glucose uptake: no insulin effect could be verified
3T3-L1 adipocytes; cells grown on m-Tyr- or o-Tyr-containing medium (72 mg/l) for different time periods, no insulin
  Baseline glucose uptake: did not show a marked change
3T3-L1 adipocytes; m-Tyr or o-Tyr 72 mg/l for different time periods, insulin 400 nM, time-dependent manner
  Insulin-induced glucose uptake, time dependence: blocked
3T3-L1 adipocytes; m-Tyr or o-Tyr 2.25-72 mg/l with p-Tyr 72 mg/l, insulin 400 nM
  Ability to inhibit insulin-induced glucose uptake, dependence on concentration: concentration-dependent
Akt (protein kinase B)
  Insulin-induced Akt phosphorylation: inhibited the insulin-induced Akt-phosphorylation; also recorded: could not be significantly enhanced by insulin
